Data on nine compounds can be found in paper PMC10537604, “Development and Assessment of 1,5–Diarylpyrazole/Oxime Hybrids Targeting EGFR and JNK–2 as Antiproliferative Agents: A Comprehensive Study through Synthesis, Molecular Docking, and Evaluation” (Molecules, 2023).

A short description of assay [1]: Nitric oxide release, Griess colorimetric method. The assay is classed as physicochemical. The following applies: phosphate buffer pH 7.4, N-acetylcysteine. As to the method:
For the indirect determination of NO, the Griess colorimetric approach was utilized, which includes spectrophotometry measurements of the stable decomposition products NO2^− and NO3^−. This method requires that NO3^− is first reduced to NO2^− and then NO2^− is determined by the Griess reaction that includes two steps, the first step is a diazotization reaction in which the NO-derived nitrogen agent, dinitrogen trioxide (N2O3), which is produced by the spontaneous oxidation of NO with sulfanilamide to form the diazonium ion, is used. […] In order to evaluate thiol-induced NO generation from the appropriate compounds, including NO-donating oximes 8a–b, 8d–i, and 10a–c, they were incubated in aqueous phosphate buffer of pH 7.4 in the presence of excess N-acetylcysteine, which serves as a source of thiols that are essential for the release of NO from oximes. The signal intensity of the dye is proportional to the amount of NO released. To quantify the amount of NO released, a standard curve was made by measuring the change in absorbance of various concentrations of standard sodium nitrite solutions treated by the same way. […] At the first hour, the amount of nitric oxide released increased in compounds 8i, 8b, and 8h, while the maximum release of nitric oxide occurring in compounds 8b and 8h was at 2 h. Then, the amount of nitic oxide released declined, which may explain the biological importance of oxime moiety as a source of nitric oxide release in comparison with ketone intermediates 7a–j and 9a–c, as shown in the anticancer activity of oxime derivatives.
The nitrite calibration curve in addition to the absorbance of the tested compounds were measured on Shimadzu UV-160, UV-Visible spectrophotometer (Shimadzu, Tokyo, Japan). The tested compounds were prepared as solutions in DMF and diluted with the buffer system until a concentration of 100 mM. N-Acetyl cysteine solution was prepared in a concentration of 500 mM in methanol. Griess reagent consists of 0.1% w/v NED solution in water and sulfanilamide solution (1% w/v of sulfanilamide in 5% w/v phosphoric acid). Nitrite standard solution (0.1 M sodium nitrite in water) stock solution was prepared, from which a dilute solution of 100 μM nitrite solution was prepared by dilution 1 mL of the stock solution to 1000 mL with phosphate buffer of pH 7.4. From this solution, 4 serials 2-fold dilutions were performed to generate different concentrations of the nitrite solution (100.00, 50.00, 25.00, and 12.50 μM) and these concentrations were used for nitrite calibration curve.
Sulfanilamide and NEDD solutions were kept at 25 °C; […] of sulfanilamide solution was added to each dilution of the prepared standard nitrite solution. The mixture was left at 25 °C for 5–10 min protected from light. To this mixture, […] of the NEDD solution was added and the mixture was again left for 5–10 min at 25 °C protected from light. […] A plot of the average absorbance value for each concentration of the nitrite standard solution as a function of “Y” against nitrite concentration as a function of “X” was constructed to generate a standard nitrite calibration curve at pH 7.4.
The amount of NO released from the tested compounds 8a–b, 8d–I, and 10a–c was measured using the Griess colorimetric method either in phosphate buffer of pH 7.4 in the presence of N-acetyl cysteine, which serves as a source of thiols. The amount of NO released from the tested compounds was measured relative to NO released from standard sodium nitrite solution.
Different solutions of the tested compounds 8a–b, 8d–i, and 10a–c in DMF were diluted using phosphate buffer of pH 7.4 till a final concentration of 100 mM (test solutions). To […] of different test solutions, […] of N-acetyl cysteine solution was added and the obtained solution was kept in an incubator at 37 °C (treated solutions). […]
In general terms: The Griess reaction detects nitrite, a stable product of nitric oxide.

For assay [2], the system named is human colorectal adenocarcinoma cell line DLD-1. The assay is described as follows: WST-8 antiproliferative assay, DLD-1. It is filed as cell-based. The following applies: WST-8 assay, six concentrations 1-100 µM. In general terms: Tetrazolium dyes change colour on reduction, which living cells bring about.
Assay [3] concerns human pancreatic cancer cell line SUIT-2. The assay is described as follows: WST-8 antiproliferative assay, SUIT-2. The assay is classed as cell-based. The following applies: WST-8 assay, six concentrations 1-100 µM.
Assay [4] relates to human hepatocellular carcinoma cell line HepG2. Put plainly: WST-8 antiproliferative assay, HepG2. It is filed as cell-based. The following applies: WST-8 assay, six concentrations 1-100 µM.
A further assay has as its target T1, JNK-2 (Homo sapiens, UniProt P45984).
T1 construct: HEK293 only for the control lysate
Put plainly: JNK-2 inhibitory assay (SimpleStep ELISA, pT183/Y185). The assay is classed as biochemical. The following applies: read-out: IC50 (µM) against JNK-2. For orientation: An ELISA detects its analyte on a solid surface through an enzyme-linked reagent.

T1 sequence (P45984 whole entry): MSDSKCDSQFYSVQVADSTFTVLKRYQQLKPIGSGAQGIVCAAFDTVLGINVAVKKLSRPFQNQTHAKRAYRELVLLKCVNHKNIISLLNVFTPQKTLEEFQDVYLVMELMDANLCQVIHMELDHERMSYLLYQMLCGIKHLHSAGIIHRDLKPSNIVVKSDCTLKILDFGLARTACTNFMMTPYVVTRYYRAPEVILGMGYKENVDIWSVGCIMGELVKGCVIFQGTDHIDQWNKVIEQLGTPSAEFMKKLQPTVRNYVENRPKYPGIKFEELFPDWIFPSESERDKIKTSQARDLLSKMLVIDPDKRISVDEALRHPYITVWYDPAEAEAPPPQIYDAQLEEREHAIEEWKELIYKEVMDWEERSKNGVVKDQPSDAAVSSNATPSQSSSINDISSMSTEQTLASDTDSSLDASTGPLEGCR
Description for JNK-2: The SimpleStep ELISA employs an affinity tag-labelled capture antibody and a reporter attached detector antibody to immunocapture the sample analyte in solution. This complete complex (capture antibody/analyte/detector antibody) is then immobilized via immunoaffinity of an anti-tag antibody coating the well. To perform the assay, samples or controls are added to the wells, followed by the antibody cocktail. After incubation, the wells are washed to remove unbound material. TMB substrate is added and during incubation is catalyzed by HRP, generating blue coloration. This reaction is then stopped by the addition of stop solution, completing any color change from blue to yellow. The signal is generated proportionally to the amount of bound analyte and the intensity is measured at 450 nm. Optionally, instead of the endpoint reading, the development of TMB can be recorded kinetically at 600 nm. An antibody cocktail can be prepared by combining an appropriate volume of the capture and detector antibodies immediately prior to assay. To make 3 mL of the antibody cocktail, combine 1.5 mL of capture antibody with 1.5 mL of detector antibody. Mix thoroughly and gently. Control lysate can be prepared from HEK293 cells, cultured in 10% FBS containing medium, then treated with 1 μg/mL anisomycin. After preparing all the reagents, samples, and control as instructed and following the previously published procedures [74, 75], add 50 µL of sample or control to the well, add 50 µL of the antibody cocktail, then incubate at room temperature for 1 h on a plate shaker set to 400 rpm, aspirate and wash each well three times with 350 μL with wash buffer, add 100 μL TMB substrate to each well and incubate for 15 min, then add 100 μL stop solution and measure the absorbance at 450 nm.

Regarding `COc1cc(/C(C)=N/O)ccc1OC(=O)c1cc(-c2ccccc2)n(-c2ccccc2)n1` [Compound 8a, (E)–4–(1–(Hydroxyimino)ethyl)2–methoxyphenyl 1,5–diphenyl–1H–pyrazole–3–carboxylate], in assay [1], the “Amount of NO Released (mol/mol) 1 h” value was 0.095 ± 0.036 mol/mol, the “Amount of NO Released (mol/mol) 2 h” value was determined as 0.121 ± 0.047 mol/mol, the “Amount of NO Released (mol/mol) 3 h” value is given as 0.108 ± 0.042 mol/mol and the “Amount of NO Released (mol/mol) 4 h” value turned out to be 0.056 ± 0.022 mol/mol.

As to `COc1cc(/C(C)=N/O)ccc1OC(=O)c1cc(-c2ccc(C)cc2)n(-c2ccccc2)n1` [Compound 8b, (E)–4–(1–(Hydroxyimino)ethyl)–2–methoxyphenyl 1–phenyl–5–p–tolyl–1H–pyrazole–3–carboxylate], in assay [1], the “Amount of NO Released (mol/mol) 1 h” value came to 0.102 ± 0.039 mol/mol, the “Amount of NO Released (mol/mol) 2 h” value turned out to be 0.159 ± 0.019 mol/mol, the “Amount of NO Released (mol/mol) 3 h” value came out at 0.105 ± 0.025 mol/mol and the “Amount of NO Released (mol/mol) 4 h” value is recorded as 0.095 ± 0.030 mol/mol. For the same compound, in assay [2], the IC50 (as a rule, the midpoint of a concentration-inhibition curve) worked out at 10 µM. For the same compound, in assay [3], the IC50 was found to be 27 µM. Further, it took 35.7 µM to reach half-maximal inhibition in assay [4] (IC50).

Regarding `COc1cc(/C(C)=N/O)ccc1OC(=O)c1cc(-c2ccc(Cl)cc2)n(-c2ccccc2)n1` [Compound 8d, (E)–4–(1–(Hydroxyimino)ethyl)–2–methoxyphenyl 5–(4–chlorophenyl)–1–phenyl–1H–pyrazole–3–carboxylate], the IC50 on JNK-2 was 49 µM. Besides, in assay [1], the “Amount of NO Released (mol/mol) 1 h” value was 0.096 ± 0.036 mol/mol, the “Amount of NO Released (mol/mol) 2 h” value was determined as 0.106 ± 0.040 mol/mol, the “Amount of NO Released (mol/mol) 3 h” value is recorded as 0.101 ± 0.038 mol/mol and the “Amount of NO Released (mol/mol) 4 h” value was 0.079 ± 0.030 mol/mol.

As to `COc1ccc(-c2cc(C(=O)Oc3ccc(/C(C)=N/O)cc3OC)nn2-c2ccccc2)cc1OC` [Compound 8e, (E)–4–(1–(Hydroxyimino)ethyl)–2–methoxyphenyl 5–(3,4–dimethoxy phenyl)–1–phenyl–1H–pyrazole–3–carboxylate], in assay [1], the “Amount of NO Released (mol/mol) 1 h” value is given as 0.064 ± 0.022 mol/mol, the “Amount of NO Released (mol/mol) 2 h” value was found to be 0.120 ± 0.046 mol/mol, the “Amount of NO Released (mol/mol) 3 h” value is 0.081 ± 0.030 mol/mol and the “Amount of NO Released (mol/mol) 4 h” value is listed as 0.048 ± 0.018 mol/mol. The same compound came in with an IC50 in assay [4] of 4.7 µM.

With `COc1cc(/C(C)=N/O)ccc1OC(=O)c1cc(-c2ccccc2)n(-c2ccc(S(N)(=O)=O)cc2)n1` [Compound 8f, (E)–4–(1–(Hydroxyimino)ethyl)–2–methoxyphenyl 5–phenyl–1–(4–sulfamoyl phenyl)–1H–pyrazole–3–carboxylate], in assay [1], the “Amount of NO Released (mol/mol) 1 h” value was 0.096 ± 0.036 mol/mol, the “Amount of NO Released (mol/mol) 2 h” value was 0.116 ± 0.045 mol/mol, the “Amount of NO Released (mol/mol) 3 h” value was 0.079 ± 0.030 mol/mol and the “Amount of NO Released (mol/mol) 4 h” value turned out to be 0.048 ± 0.018 mol/mol. The IC50 in assay [4] was found to be 22.3 µM.

For the compound `COc1ccc(-c2cc(C(=O)Oc3ccc(/C(C)=N/O)cc3OC)nn2-c2ccc(S(N)(=O)=O)cc2)cc1` [Compound 8h, (E)–4–(1–(Hydroxyimino)ethyl)–2–methoxyphenyl 5–(4–methoxyphenyl)–1–(4–sulfamoyl phenyl)–1H–pyrazole–3–carboxylate], in assay [1], the “Amount of NO Released (mol/mol) 1 h” value turned out to be 0.099 ± 0.029 mol/mol, the “Amount of NO Released (mol/mol) 2 h” value turned out to be 0.158 ± 0.014 mol/mol, the “Amount of NO Released (mol/mol) 3 h” value worked out at 0.104 ± 0.033 mol/mol and the “Amount of NO Released (mol/mol) 4 h” value turned out to be 0.094 ± 0.0022 mol/mol. This compound yielded an IC50 in assay [3] of 26 µM.

Regarding `C/C(=N\O)c1ccc(NC(=O)c2cc(-c3ccccc3)n(-c3ccc(S(N)(=O)=O)cc3)n2)cc1` [Compound 10a, (E)–N–(4–(1–(Hydroxyimino)ethyl)phenyl)–5–phenyl–1–(4–sulfamoylphenyl)–1H–pyrazole–3–carboxamide], in assay [1], the “Amount of NO Released (mol/mol) 1 h” value worked out at 0.054 ± 0.023 mol/mol, the “Amount of NO Released (mol/mol) 2 h” value is reported as 0.108 ± 0.043 mol/mol, the “Amount of NO Released (mol/mol) 3 h” value came to 0.069 ± 0.024 mol/mol and the “Amount of NO Released (mol/mol) 4 h” value is recorded as 0.036 ± 0.012 mol/mol. For the same compound, inhibition in assay [2] was half-maximal at 26 µM (IC50).

Take `COc1ccc(-c2cc(C(=O)Nc3ccc(/C(C)=N/O)cc3)nn2-c2ccc(S(N)(=O)=O)cc2)cc1` [Compound 10b, (E)–N–(4–(1–(Hydroxyimino)ethyl)phenyl)–5–(4–methoxyphenyl)–1–(4–sulfamoylphenyl)–1H–pyrazole–3–carboxamide]: in assay [1], the “Amount of NO Released (mol/mol) 1 h” value came to 0.095 ± 0.035 mol/mol, the “Amount of NO Released (mol/mol) 2 h” value is reported as 0.114 ± 0.046 mol/mol, the “Amount of NO Released (mol/mol) 3 h” value came out at 0.079 ± 0.031 mol/mol and the “Amount of NO Released (mol/mol) 4 h” value turned out to be 0.031 ± 0.018 mol/mol. The compound also registered an IC50 in assay [2] of 36 µM.

Take `COc1ccc(-c2cc(C(=O)Nc3ccc(/C(C)=N/O)cc3)nn2-c2ccc(S(N)(=O)=O)cc2)cc1OC` [Compound 10c, (E)–5–(3,4–Dimethoxyphenyl)–N–(4–(1–(hydroxyimino)ethyl)phenyl)–1–(4–sulfamoyl phenyl)–1H–pyrazole–3–carboxamide]: in assay [1], the “Amount of NO Released (mol/mol) 1 h” value worked out at 0.075 ± 0.036 mol/mol, the “Amount of NO Released (mol/mol) 2 h” value stood at 0.151 ± 0.049 mol/mol, the “Amount of NO Released (mol/mol) 3 h” value was 0.114 ± 0.030 mol/mol and the “Amount of NO Released (mol/mol) 4 h” value is recorded as 0.081 ± 0.020 mol/mol. The IC50 in assay [3] stood at 13 µM.
